Measurements as given in patent publication US11779548B2, “Arylfluorosulfate compounds and methods” (THE SCRIPPS RESEARCH INSTITUTE, priority 2014, dated 2023).
pIC50: −log10 of the molar value.

Assays:
SKBR3 cells = assay: Cancer cell growth inhibition assay; type: cell-based; details: Homo sapiens, SK-BR-3, 72 h, read-out: IC50 SKBR3 Cells
Experimental: (§1) Experimental compounds were dissolved in DMSO at 500-fold of the desired final maximum test concentration. Then it was 10-fold serially diluted to other concentrations in DMSO. All aliquots were frozen prior to use.
(§2) Another same plate of cells was inoculated for the evaluation of time 0. […] And another plate of cancer cells was refreshed with medium containing either DMSO (0.2%, as control) or test compounds (1 or 1F) in seven different concentrations from 20 μM. After incubation for 72 hours, cell viabilities were evaluated by CellTiter-Glo™ assay to obtain Vcontrol and Vtest. The growth inhibition percentage is defined as (Vtest−V0)/(Vcontrol−V0)×100%. IC50 values were obtained from dose-response curves. All tests included 3 repeats.
as §2, with “Then the viabilities of cancer cells for time 0 were evaluated by CellTiter-Glo™ assay to obtain V0. Another” for “And another”, “(25” for “(1”, “25F)” for “1F)”, “7 to 9” for “seven”, “μM (2 μM for MCF-7 cells). Then cells were” for “μM. After”, “hours, before” for “hours,”

HT-29 cells = assay: Cancer cell growth inhibition assay; type: cell-based
Experimental: as §1, §2
as §2, with “Then the viabilities of cancer cells for time 0 were evaluated by CellTiter-Glo™ assay to obtain V0. Another” for “And another”, “(25” for “(1”, “25F)” for “1F)”, “7 to 9” for “seven”, “μM (2 μM for MCF-7 cells). Then cells were” for “μM. After”, “hours, before” for “hours,”

[1] = test system: A549, MCF-7, SKBR3 and HT-29 cells; assay: Cancer cell growth inhibition assay, comparison over the cell line panel; type: cell-based; details: 20 μM and 2 μM, dose-response studies
Experimental: as §1, §2
as §2, with “Then the viabilities of cancer cells for time 0 were evaluated by CellTiter-Glo™ assay to obtain V0. Another” for “And another”, “(25” for “(1”, “25F)” for “1F)”, “7 to 9” for “seven”, “μM (2 μM for MCF-7 cells). Then cells were” for “μM. After”, “hours, before” for “hours,”

[2] = test system: microtubule network in HT-29 cells; assay: Immunofluorescence microscopy of HT-29 microtubule disruption; type: cell-based; details: HT-29, 24 h, anti-tubulin-FITC, confocal imaging; 25F 1 μM and 0.1 μM
Experimental: To assess the mechanism of fluorosulfate 25F, HT-29 cells were treated with 25F followed by staining with anti-tubulin-FITC antibody. […] In fact, glucuronidation of 25 on the phenol group by uridine 5-diphosphoglucuronosyl transferases (UGTs) has been previously identified as a mechanism of resistance evolved by HT-29 colon cancer cells and hepatocellular cancer cells.
After incubation at 37° C. for 24 hours, cells were treated with media containing DMSO (0.2%), 25 (1 μM, 0.1 μM) or 25F (1 μM, 0.1 μM, 0.01 μM) for 24 hours. Then cells were gently washed in PBS, fixed for 20 min with 4% paraformaldehyde in PBS and permeabilised in 0.5% Triton X-100™ surfactant. Following washes in PBS containing 0.1% Tween™ (PBST) surfactant, cells were blocked in 5% bovine serum albumin diluted in PBST. Then cells were incubated with mouse monoclonal anti-tublin-FITC antibody (DM1A) (1:100 in PBS) for 3 hours. After washing with PBST, cells were incubated with DAPI (1:2000) for 30 min and mounted in PBS for confocal analysis. Images were captured by Nikon™ spinning disk confocal microscopy. All images in each experiment were collected on the same day using identical parameters.

MCF-7 cells [3] = assay: Cancer cell growth inhibition assay; type: cell-based; details: Homo sapiens, MCF7, read-out: IC50 MCF-7 Cells
Experimental: as §1, §2
(§3) Cancer cells were inoculated into a 96-well plate in 100 μL medium at a plating density of 3,000 cells/well. […] Then cells were incubated for 6 days with one change of medium containing test compounds on day 3, before cell viabilities were evaluated by CellTiter-Glo™ Assay to obtain Vcontrol and Vtest. […]
(§4) Another same plate of cells was inoculated for the evaluation of time 0. […] Then the viabilities of cancer cells for time 0 were evaluated by CellTiter-Glo™ assay to obtain V0. […] Then cells were incubation for 72 hours, before cell viabilities were evaluated by CellTiter-Glo™ assay to obtain Vcontrol and Vtest. […]

A549 cells [4] = assay: Cancer cell growth inhibition assay; type: cell-based; details: Homo sapiens, A549, read-out: IC50 A549 Cells
Experimental: as §1, §2, §3, §4

MCF-7 cells [5] = assay: Two-dose cell viability assay (CellTiter-Glo); details: MCF-7, 500 nM, 72 h, in situ generated product
Experimental: (§5) The cytotoxicity of fluorosulfation products 1F to 39F and their phenol precursors was assessed in cancer cell lines using a double-dose cell viability test. […] The difference between the cytotoxicity of a fluorosulfation product and that of its phenol precursor reflects the changes in compounds' anti-cancer activity after the SuFEx-based derivatization (FIG. 3, A). […] The corresponding phosphate of combretastatin A4 is a tumor vascular targeting agent, and the water-soluble prodrug of combretastatin A4.
(§6) 6C. Two-Dose Cell Viability Assay to Compare the Cytotoxicities of Fluorosulfation Products (1F to 39F) and Phenol Parents (1 to 39).
(§7) MCF-7 and A549 cancer cells were inoculated into 96-well plates in 100 μL medium at a plating density of 5,000 cells/well. After cell inoculation, the plates were incubated at 37° C. and 5% CO2. After 24 hours, all wells were refreshed with medium containing DMSO (0.2%, as vehicle control), phenols (20 μM or 500 nM) or in situ generated fluorosulfation products (20 μM or 500 nM). Then cancer cells were maintained at 37° C. and 5% CO2 for 72 hours before cell viability (Vcontrol, Vphenol and Vfluorosulfation product) were evaluated by CellTiter-Glo™ Assay following manual of protocol. […] The cytotoxicity difference between a fluorosulfation product and its phenol precursor is quantified as (Vphenol/Vcontrol×100%)−(Vfluorosulfation product/Vcontrol×100%).

A549 cells [6] = assay: Two-dose cell viability assay (CellTiter-Glo); details: A549, 20 μM and 500 nM, 72 h
Experimental: as §5, §6, §7

Compound: COc1ccc(/C=C\c2cc(OC)c(OC)c(OC)c2)cc1OS(=O)(=O)F [25F, (Z)-2-Methoxy-5-(3,4,5-trimethoxystyryl)phenyl sulfurofluoridate]
- pIC50 (SKBR3 cells): 8.74
- pIC50 (HT-29 cells; Homo sapiens, HT-29, 72 h, read-out: IC50 HT-29 Cells): 7.15
- fold lower IC50 (increase in potency) versus compound 25 on HT-29 (HT-29 cells; drug resistant colon cancer cell line HT-29): 70 fold
- activity to inhibit cells at high concentrations compared with parent drug 25 [1]: stronger activities
- microtubule structure of treated cells [2]: completely lost microtubule structure
- pIC50 (MCF-7 cells [3]): 7.81
- pIC50 (A549 cells [4]): 6.95
- increase of cytotoxicity relative to phenol precursor (MCF-7 cells [5]): 8%
- cytotoxicity compared with phenol precursor (A549 cells [6]): significantly stronger
